Data published in patent US4576951A, “Proglumide, pharmaceutical preparations and compositions including it for use in human pain relief” (priority 1983, dated 1986).
Like-named read-outs stand apart in the source and are kept apart here.

Key:
[1] = Randall-Selitto test: analgesia produced by opiates; assay type: in vivo, rats; details: for t (vs controls): Student t
Experimental: Analgesic activity in the Randall-Selitto test
The method is that described by Winters et al (J. Pharmacol. Exp. Ther. 150, 165 (1965). Groups of five female rats having an average weight of about 100 g and which have not been fasting are used. A 20% saline solution of yeast is administered into the sub-plantar region of the right hind leg.
The compounds to be tested are administered s.c. 2 hours after the injection of inflammatory agent 0.5 hours after the administration of the drugs, the pain threshold is determined by measuring the pressure needed to induce a flight reaction in the animal. The results obtained are given in Table No. 3 which records the groups treated and the doses administered, the pain threshold expressed as a pressure exerted in mmHg to cause the pain stimulus (average±S.E.) and a statistical evaluation of the results of the various treated groups by the Student "t" test.

in vivo = details: mouse, sc
Experimental: The drug (or drugs) under examination was administered sub-cutaneously. The animals were kept under observation for 15 days after the administration.
Ten animals were used for each dose.

[2] = Hot plate test: potentiation of analgesic activity of opiates; assay type: in vivo, rats; details: morphine 2.5 or methadone 1 mg/kg s.c. alone
Experimental: The method is that described by Eddy et al. (J. Pharmac. Exp. Therm. 107, 385 (1953)).
Groups of five male rats having a weight of about 150 g and which have not been fasting are used.
The animals are placed on a metal plate which is on the bottom of a transparent cylinder heated to 55°±1° C. by an azeotropic boiling mixture (1:1 acetone-ethyl formate). The time which passes between the moment at which the animal is placed on the hot plate and the moment at which it licks its feet or tries to jump out of the cylinder is defined as the reaction time. The control reaction time is measured 10 and 5 minutes before the administration of the drugs and 10, 20, 30, 45, 60, 90 minutes afterwards. The animals are left on the plate for a maximum period of 30 seconds. The response to the administration of the product is considered positive if at least a doubling of the normal reaction time is seen. The results obtained are given in Table 2 which records the groups treated, the doses administered and the stay times on the plate expressed as the number of positive responses over the number treated.

[3] = Potentiation of analgesic effect of enkephalinamide (DALA) i.c.v. (Tail Flick test); assay type: in vivo, rats; details: alone i.c.v.: proglumide 1 or DALA 10 μg/kg
Experimental: Potentiation of the analgesic activities of enkephalins induced by proglumide
In order to check one of the possible mechanisms for the action of proglumide, that is its possible inhibition of the enzymatic degradation of endogenous enkephalins, the following experiment was carried out:
A cannula was implanted in the right lateral ventricle of male rats having a weight of 150-200 g (groups of five animals were used) in order to allow the intracerebroventricular (I.C.V.) administration of drugs according to the method of Noble et al (Life Science 6, (1970) 281-291). […]

[4] = assay type: in vivo, rats
Experimental: The method is that described by Harris et al. (J. Pharmcol. Exp. Ther. 143 (1964) 141-148).
Male rats are used which have a weight of about 150-200 g and which have not been fasting. A point is chosen on the tail and this is irradiated by a heat source (75° C.) and the time (in seconds) for which the animal remains without moving its tail is measured.
A maximum period of time under the heat source of 8 seconds is chosen after which the animal is, in any case, removed in order to avoid tissue damage. The measurement is effected before (controls) and after treatment with the drugs. […] The percentage variation is calculated for each individual animal by the following formula: [formula] (time measurements are in seconds)
The measurements are carried out 10, 20, 30, 45, 60 and 90 minutes after treatment with the analgesics.

[5] = assay type: in vivo, rats; details: morphine 5 mg/kg i.p. repeated
Experimental: Activity of proglumide as an antagonist to the tolerance induced by opiates
Groups of five male rats having a weight of about 200-250 g were used.
The determination of the pain threshold was effected 1, 3, 6, 9 and 12 hours after the first treatment by the Tail Flick test.
The data given in Table 5 indicate the percentage variations in the latency (appearance of pain) before and after treatment with the drugs.

[6] = higher dose alone s.c.: morphine 2, propoxyphene 25, pentazocine 6 mg/kg
[7] = lower dose alone s.c.: morphine 0.5, propoxyphene 7.5, pentazocine 2 mg/kg

## CC(C)=CCN1CCC2(C)c3cc(O)ccc3CC1C2C (centres unmarked) [Pentazocine]
[1]; [6]
  t (vs controls): 6.63
  P (vs controls): < 0.001
  Pain threshold (mmHg) M ± S.E.: 48.6 ± 4.93 mmHg
[1]; [7]
  t (vs controls): 2.50
  P (vs controls): < 0.05
  Pain threshold (mmHg) M ± S.E.: 27.9 ± 5.71 mmHg

## CCC(=O)C(CC(C)N(C)C)(c1ccccc1)c1ccccc1 (centres unmarked) [Methadone]
In vivo
  LD50 at 360 h: 53.5 mg/kg
[2]; 10 min
  positive responses / treated: 1/5
[2]; 20 min
  positive responses / treated: 2/5
[2]; 30 min
  positive responses / treated: 1/5
[2]; 45 min
  positive responses / treated: 2/5
[2]; 60 min
  positive responses / treated: 1/5
[2]; 90 min
  positive responses / treated: 1/5
[2]; total over 10-90 min
  A* = Tot. positive X/30: 8

## D-ala-methionine-enkephalinamide [DALA]
[3]; 5 min
  % variation in the latency to pain: 61.06 ± 11.8%
[3]; 15 min
  % variation in the latency to pain: 51.04 ± 4.6%
[3]; 30 min
  % variation in the latency to pain: 40.00 ± 9.04%
[3]; 45 min
  % variation in the latency to pain: 25.24 ± 7.7%
[3]; 60 min
  % variation in the latency to pain: 14.68 ± 9.2%
[3]; 90 min
  % variation in the latency to pain: 10.06 ± 8.3%
[3]
  Average (0 → 90) % variation in the latency to pain: 33.7 ± 8.3%

## CCC(=O)O[C@](Cc1ccccc1)(c1ccccc1)[C@H](C)CN(C)C [Dextropropoxyphene]
[4]; rat, in vivo
  X, potency ratio with respect to morphine = 1: 1
  average percentage variation in latency M (1-90') ± S.E.: 33.48 ± 7.16
[1]; [6]
  t (vs controls): 3.71
  P (vs controls): < 0.01
  Pain threshold (mmHg) M ± S.E.: 50.7 ± 10.02 mmHg
[1]; [7]
  t (vs controls): 3.34
  P (vs controls): < 0.05
  Pain threshold (mmHg) M ± S.E.: 37.5 ± 7.12 mmHg

## CN1CC[C@]23c4c5ccc(O)c4O[C@H]2[C@@H](O)C=C[C@H]3[C@H]1C5 [Morphine]
[4]; 10 min, morphine 3 or dextropropoxyphene 6 mg/kg alone
  percentage variation in the latency of the pain sensation: 29.0 ± 20.4%
[4]; 20 min, morphine 3 or dextropropoxyphene 6 mg/kg alone
  percentage variation in the latency of the pain sensation: 35.0 ± 9.4%
[4]; 30 min, morphine 3 or dextropropoxyphene 6 mg/kg alone
  percentage variation in the latency of the pain sensation: 71.4 ± 12.1%
[4]; 45 min, morphine 3 or dextropropoxyphene 6 mg/kg alone
  percentage variation in the latency of the pain sensation: 49.3 ± 21.3%
[4]; 60 min, morphine 3 or dextropropoxyphene 6 mg/kg alone
  percentage variation in the latency of the pain sensation: 38.8 ± 23.9%
[4]; 90 min, morphine 3 or dextropropoxyphene 6 mg/kg alone
  percentage variation in the latency of the pain sensation: 38.3 ± 20.1%
[4]; mean 1-90 min, morphine 3 or dextropropoxyphene 6 mg/kg alone
  average percentage variation in latency M (1-90') ± S.E.: 43.62 ± 7.37%
[5]; 1 h
  percentage variation in the latency: 58.98 ± 16.3%
[5]; 3 h
  percentage variation in the latency: 67.58 ± 11.1%
[5]; 6 h
  percentage variation in the latency: 30.0 ± 15.3%
[5]; 9 h
  percentage variation in the latency: 38.62 ± 8.7%
[5]; 12 h
  percentage variation in the latency: 23.1 ± 8.6%
